Measured values from patent US7323609B2, “Corrosion and gas hydrate inhibitors having improved water solubility and increased biodegradability” (Clariant Produkte (Deutschland) GmbH, priority 2003, dated 2008).

Experiments:
[1] = Shell wheel test (corrosion inhibition); conditions: 50 ppm of a 40% inhibitor solution; salt water/petroleum, pH 3.5, 40 rpm, 70° C., 24 hours; from mass reduction vs blank
Experimental: The compounds according to the invention were tested as corrosion inhibitors in the Shell wheel test. Coupons of carbon steel (DIN 1.1203 having 15 cm^2 surface area) were immersed in a salt water/petroleum mixture (9:1.5% NaCl solution, adjusted to pH 3.5 using acetic acid) and subjected to this medium at a rotation rate of 40 rpm at 70° C. for 24 hours. The dosage of the inhibitor was 50 ppm of a 40% solution of the inhibitor. The protection values were calculated from the mass reduction of the coupons, based on a blank value.
In the table which follows, “comparison 1” refers to a commercial residue amine, quat based on dicocoalkyldimethylammonium chloride and “comparison 2” to a commercial soya fatty acid amidopropyl-N,N-dimethylammonium carboxymethyl betaine described by EP-B-0 446 616 (prior art corrosion inhibitors).

[2] = LPR test (corrosion inhibition, conditions similar to ASTM D 2776); parameters: concentration or dose not given beside the values
Experimental: The products were also tested in the LPR test (test conditions similar to ASTM D 2776).

Substance | ø Protection % [1] [%] | Protection after 10 min [2] [%] | Protection after 30 min [2] [%] | Protection after 60 min [2] [%]
C14/15-oxo alcohol+7 EO-ether carboxamido-N,N-dimethylamino-N-propylammonium N-methylcarboxyl betaine [Example 34] | 71.9 |  |  | 
lauryl+3 EO-ether carboxamido-N,N-dimethylamino-N-propylammonium N-methylcarboxyl betaine [Example 35] | 75.9 | 74.4 | 80.2 | 84.3
oleyl+5 EO-ether carboxamido-N,N-dimethylamino-N-propylammonium N-methylcarboxyl betaine [Example 33] | 70.7 | 75.6 | 80.3 | 82.8
